Experimental data taken from publication PMC11242996, “IL-6 Inhibitory Compounds from the Aerial Parts of Piper attenuatum and Their Anticancer Activities on Ovarian Cancer Cell Lines” (Molecules, 2024).
Read-outs that look alike come from different tables or passages of the source.

Key:
[1] = test system: paclitaxel-resistant SKOV3 (SKOV3-TR) cells; experiment: CCK-8 cytotoxicity assay, SKOV3-TR; assay type: cell-based; settings: Homo sapiens, SKOV3TR, CCK-8, 24 h
From the text: (§1) However, despite chemotherapy, many patients die of ovarian cancer recurrence. Inflammatory mediators such as IL-6 and several other cytokines influence drug resistance and recurrence in ovarian cancer.
(§2) The human epithelial ovarian cancer cell lines SKOV3 and A2780 were purchased from the Korean Cell Line Bank (KCLB, Seoul, Republic of Korea) and the European Collection of Cell Cultures (ECACC, Wiltshire, UK), respectively. The cisplatin-resistant A2780 (A2780-cis) and paclitaxel-resistant SKOV3 (SKOV3-TR) cells were obtained from Yonsei University (Institute of Women’s Life Medical Science, Division of Gynecological Oncology, Republic of Korea). SKOV3, SKOV3-TR, A2780, and A2780-cis cells were cultured in the RPMI-1640 medium (Welgene, Daegu, Republic of Korea). SKOV3-TR and A2780-cis cells were cultured in 100 nM paclitaxel (Cayman Chemical Company, Ann Arbor, MI, USA) and 1 µM cisplatin (Dong-A Pharmaceutical Co., Seoul, Republic of Korea), respectively. All the culture media were supplemented with 10% (v/v) fetal bovine serum and 1% penicillin or streptomycin (Gibco-BRL, Gaithersburg, MD, USA), and the cells were maintained at 37 °C in a humidified atmosphere of 5% CO2 and 95% air. Each culture medium was replaced with a fresh medium every 2–3 days.
(§3) A CCK-8 assay was performed to assess cytotoxicity. After seeding 5 × 10^5 cells/300 µL in 48-well plates, the cells were treated with the isolated compounds at 1, 5, 10, 20, 40, and 60 μM concentrations for 24 h. For the CCK-8 analysis, 30 μL of the CCK-8 solution (Dojindo, Kumamoto, Japan) was added to each well, allowed to react for 1 h, and then, the optical density value was measured at 450 nm using an ELISA microplate reader (Epoch, BioTek Instruments, Winooski, VT, USA). All the experiments were performed in triplicates. The IC50 values were calculated from a log([drug]) versus normalized response curve fit using GraphPad Prism version 5.00 for Windows (GraphPad Software, San Diego, CA, USA).

[2] = Cytotoxicity (CC50) in HEK-Blue IL-6 cells; assay type: cell-based; settings: human, from extrapolated concentration-response curves
Method: (§4) The HEK-Blue™ IL-6 cells purchased from InvivoGen (San Diego, CA, USA) were used to seed 3 × 10^4 cells/200 µL in a 96-well plate. Each well was treated with different concentrations (0, 0.1, 1, 5, 10, 50, and 100 μM) of the isolated compounds. Recombinant human IL-6 (BioLegend, San Diego, CA, USA) was administered at 10 ng/mL. After 24 h, 20 μL of the cell suspension was added to 180 μL of QUANTI-Blue™ solution (InvivoGen, San Diego, CA, USA) in a fresh 96-well plate. After incubation at 37 °C for 2 h, the absorbance was measured spectrophotometrically (Epoch, BioTek Instruments, Winooski, VT, USA) at 635 nm. The EC50 values were calculated from a log([drug]) versus normalized response curve fit using GraphPad Prism version 5.00 for Windows (GraphPad Software, San Diego, CA, USA). The CC50 values were calculated from extrapolated concentration–response curves plotted with GraphPad Prism version 5.0 for Windows (GraphPad Software, San Diego, CA, USA) using inhibitory percentages versus the drug concentration logarithm.

[3] = test system: A2780 cells; experiment: CCK-8 cytotoxicity assay, A2780; assay type: cell-based, human; settings: CCK-8, 24 h
From the text: as §1, §2, §3

[4] = test system: SKOV3 cells; experiment: CCK-8 cytotoxicity assay, SKOV3; assay type: cell-based, human; settings: CCK-8, 24 h
From the text: as §1, §2, §3

[5] = test system: cisplatin-resistant A2780 (A2780-cis) cells; experiment: CCK-8 cytotoxicity assay, A2780-cis; assay type: cell-based; settings: Homo sapiens, A2780cis, CCK-8, 24 h
From the text: as §1, §2, §3

[6] = test system: IL-6 activity in HEK-Blue™ IL-6 cells; experiment: IL-6 inhibition bioassay using HEK-Blue IL-6 cells (STAT3-inducible SEAP reporter, QUANTI-Blue); assay type: cell-based, human; settings: for EC50: 10 ng/mL IL-6, 24 h, SEAP readout, read-out: EC50 (IL-6 inhibitory activity); for inhibition of IL-6 activity: 10 ng/ml hIL-6, 24 h (Figure S22)
Method: We isolated eighteen compounds from P. attenuatum and assessed their inhibitory effects on IL-6 activity using the HEK-Blue™ IL-6 cell line. As the HEK-Blue™ IL-6 cells were transfected with a reporter gene expressing STAT3-inducible secreted embryonic alkaline phosphatase (SEAP), STAT3 was activated, and SEAP was produced when the cells were stimulated with IL-6. The extent of the inhibition of IL-6 downstream signaling by these compounds was assessed in vitro using bazedoxifene (gp130 inhibitor) as a positive control in the HEK-Blue™ IL-6 cells. Bazedoxifene is a newly developed third-generation indole-based estrogen receptor (ER) ligand used in the treatment of postmenopausal osteoporosis, also known as gp130 inhibitor.
The cells were treated with increasing concentrations of the eighteen isolated compounds (0, 0.1, 1, 5, 10, 50, and 100 μM) in the presence of 10 ng/mL IL-6.
as §4

[7] = Homo sapiens, HEK-Blue IL-6, 24 h

Compound	IC50 [1] [µM]	CC50 at 24 h [2] [µM]	IC50 ([3]; Homo sapiens, A2780, 24 h) [µM]	IC50 ([4]; Homo sapiens, SK-OV-3, 24 h) [µM]	IC50 [5] [µM]	TI (therapeutic index, CC50/EC50) [6]	EC50 [6] [µM]	EC50 [6, 7] [µM]	TI (therapeutic index, CC50/EC50) ([6]; listed as bazedoxifene)	inhibition of IL-6 activity [6]	IC50 [3] [µM]	IC50 [4] [µM]
Cc1c(-c2ccc(O)cc2)n(Cc2ccc(OCCN3CCCCCC3)cc2)c2ccc(O)cc12 [Bazedoxifene, bazedoxifene, reference compound]	20.32 ± 0.2	4.07 ± 0.35	8.2 ± 1.77	7.25 ± 0.62	33.8 ± 0.15	2.14 ± 0.78	1.91 ± 0.43	1.91 ± 2.84	2.14			
COc1ccc(CC2=C(Cc3ccc4c(c3)OCO4)C(=O)NC2OC)cc1OC (stereo not drawn) [Compound 3, piperimide III]	41 ± 1.18	28.7 ± 0.19	17.5 ± 0.19	15.76 ± 0.15	40.5 ± 1.11			3.52 ± 0.14		approximately 50%		
COc1ccc(C[C@H]2COC(=O)[C@@H]2Cc2ccc(OC)c(OC)c2)cc1OC [Compound 4, (-)-dimethylmatairesinol]	33 ± 0.5	22.6 ± 0.25	20.6 ± 0.25	20.04 ± 0.18	16.9 ± 0.19			4.06 ± 0.07		approximately 50%		
CC(=O)/C=C/[C@@]1(O)C(C)=CC(=O)CC1(C)C [Compound 11, (6S)-dehydrovomifoliol]	19.9 ± 0.22	13.72 ± 0.11	~10	~10	14.4 ± 0.21			2.12 ± 0.04		approximately 50%	9.8 ± 0.11	10.7 ± 0.14
CC1(C)C[C@@H](O)C[C@@]2(C)OC(=O)C=C12 [Compound 12, (-)-loliolide]	6.44 ± 0.1	10.6 ± 0.1	~10	~10	16.6 ± 0.18			0.91 ± 0.04		approximately 50%	8.62 ± 0.1	10.7 ± 0.31
O=c1cc(-c2ccc(O)cc2)oc2c(C3OC(CO)C(O)C(O)C3OC3OCC(O)(CO)C3O)c(O)cc(O)c12 (stereo not drawn) [Compound 17, ficuflavoside]	40.3 ± 0.85	32.5 ± 0.45	21.8 ± 0.45	26.6 ± 0.3	41 ± 0.63			1.31 ± 0.05		approximately 50%		
